Source: patent US8119681B2, “2-[1-phenyl-5-hydroxy or methoxy-4alpha-methyl-hexahydrocyclopenta [ƒ]indazole-5-YL]ethyl phenyl derivatives as glucocorticoid receptor ligands” (Merck Sharp & Dohme Corp., priority 2006, dated 2012)

Target: T1, glucocorticoid receptor (GR) (Homo sapiens, UniProt P04150)
T1 construct: endogenous in cells; host or cells: HeLa (ATCC) cell lysate supernatant
T1 sequence (P04150 1-777): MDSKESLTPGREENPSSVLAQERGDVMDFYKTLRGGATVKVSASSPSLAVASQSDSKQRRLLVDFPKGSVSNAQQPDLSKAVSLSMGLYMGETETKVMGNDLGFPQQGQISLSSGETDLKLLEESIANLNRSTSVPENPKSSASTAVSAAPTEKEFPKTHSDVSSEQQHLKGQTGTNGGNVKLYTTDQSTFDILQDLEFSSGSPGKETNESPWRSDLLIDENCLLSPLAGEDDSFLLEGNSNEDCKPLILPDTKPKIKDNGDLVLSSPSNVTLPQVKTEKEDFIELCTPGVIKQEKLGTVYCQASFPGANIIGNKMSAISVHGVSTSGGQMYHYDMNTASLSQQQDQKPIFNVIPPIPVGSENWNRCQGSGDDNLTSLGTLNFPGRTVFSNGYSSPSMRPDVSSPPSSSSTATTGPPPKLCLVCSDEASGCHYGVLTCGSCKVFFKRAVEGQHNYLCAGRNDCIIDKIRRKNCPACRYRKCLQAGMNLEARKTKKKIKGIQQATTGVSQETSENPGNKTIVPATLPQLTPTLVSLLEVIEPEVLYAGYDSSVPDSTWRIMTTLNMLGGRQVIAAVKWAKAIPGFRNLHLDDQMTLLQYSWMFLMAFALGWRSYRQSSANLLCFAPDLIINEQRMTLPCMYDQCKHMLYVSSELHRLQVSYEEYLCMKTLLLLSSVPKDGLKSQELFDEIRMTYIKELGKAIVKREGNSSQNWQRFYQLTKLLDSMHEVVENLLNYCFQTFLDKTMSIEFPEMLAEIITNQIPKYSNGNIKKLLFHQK
Experiment: Ligand binding assay (GR BIND), 3H-dexamethasone displacement, HeLa cell lysate
Experimental: Binding Buffer: TEGM (10 mM Tris-HCl, 1 mM EDTA, 10% glycerol, 1 mM beta-mercaptoethanol, 10 mM Sodium Molybdate, pH 7.2)
50% HAP Slurry: Calbiochem Hydroxylapatite, Fast Flow, in 10 mM Tris, pH 8.0 and 1 mM EDTA.
Wash Buffer: 40 mM Tris, pH7.5, 100 mM KCl, 1 mM EDTA and 1 mM EGTA.
Dexmethasone-methyl-^3H, (DEX*); (Amersham cat# TRK645)
Dexamethasone (DEX) (Sigma, cat# D1756):
Phenol red-free Trypsin-EDTA is diluted in the same PBS 1:10. The cell layers are rinsed with 1× Trypsin, extra Trypsin is poured out, and the cell layers are incubated at 37° C. for ˜2 min. The flask is tapped and checked for signs of cell detachment. Once the cells begin to slide off the flask, the complete media is added. The cells are counted at this point, then diluted to the appropriate concentration and split into flasks or dishes for further culturing (Usually 1:3 to 1:6 dilution).
Preparation of Hela Cell Lysate
The cell pellet is washed twice with TEGM (10 mM Tris-HCl, 1 mM EDTA, 10% glycerol, 1 mM beta-mercaptoethanol, 10 mM Sodium Molybdate, pH 7.2). After the final wash, the cells are resuspended in TEGM at a concentration of 10^7 cells/mL. The cell suspension is snap frozen in liquid nitrogen or ethanol/dry ice bath and transferred to −80° C. freezer on dry ice. Before setting up the binding assay, the frozen samples are left on ice-water to just thaw (˜1 hr). Then the samples are centrifuged at 12,500 g to 20,000 g for 30 min at 4° C. The supernatant is used to set-up assay right away. If using 50 μL of supernatant, the test compound can be prepared in 50 μL of the TEGM buffer.
Procedure for Multiple Compound Screening
1×TEGM buffer is prepared, and the isotope-containing assay mixture is prepared in the following order: EtOH (2% final concentration in reaction), 3H-DEX (Amersham Biosciences) and 1×TEGM. [e.g. For 100 samples, 200 μL (100×2) of EtOH+4.25 μL of 1:10 ^3H-Dex stock+2300 μL (100×23) 1×TEGM]. The compound is serially diluted, e.g., if starting final conc. is 1 μM, and the compound is in 25 μL of solution, for duplicate samples, 75 μL of 4×1 μM solution is made and 3 μL of 100 μM is added to 72 μL of buffer, and 1:5 serial dilution.
25 μL of ^3H-DEX (6 nM) trace and 25 μL compound solution are first mixed together, followed by addition of 50 μL receptor solution. The reaction is gently mixed, spun briefly at about 200 rpm and incubated at 4° C. overnight. 100 μL of 50% HAP slurry is prepared and added to the incubated reaction which is then vortexed and incubated on ice for 5 to 10 minutes. The reaction mixture is vortexed twice more to resuspend HAP while incubating reaction. The samples in 96-well format are then washed in wash buffer using The FilterMate™ Universal Harvester plate washer (Packard). The washing process transfers HAP pellet containing ligand-bound expressed receptor to Unifilter-96 GF/B filter plate (Packard). The HAP pellet on the filter plate is incubated with 50 μL of MICROSCINT (Packard) scintillant for 30 minutes before being counted on the TopCount microscintillation counter (Packard). IC50s are calculated using DEX as a reference.

[1] = Table 1, HeLa cell lysate, 3H-DEX
[2] = Table 2, prior-art comparison compounds

| Compound | Ki [1] [nM] | Ki [2] [nM] |
| --- | --- | --- |
| C[C@]12Cc3cnn(-c4ccc(F)cc4)c3C=C1CC[C@@]2(O)CCc1ccc(F)cc1 [Example 46 WO 2004/075840 A2, reference compound] | – | 1 |
| C[C@]12Cc3cnn(-c4ccc(F)cc4)c3C=C1CC[C@@]2(O)CCc1ccccc1C(=O)N1CCC1 [Example 40, (4αS,5R)-5-{2-[2-(azetidin-1-ylcarbonyl)phenyl]ethyl}-1-(4-fluorophenyl)-4α-methyl-1,4,4α,5,6,7-hexahydrocyclopenta[f]indazol-5-ol] | 6.14 | – |
| CCNC(=O)c1ccccc1CC[C@]1(O)CCC2=Cc3c(cnn3-c3ccc(F)cc3)C[C@@]21C [Example 2, N-ethyl-2-{2-[(4αS,5R)-1-(4-fluorophenyl)-5-hydroxy-4α-methyl-1,4,4α,5,6,7-hexahydrocyclopenta[f]indazol-5-yl]ethyl}benzamide] | 2.08 | – |
| COc1ccccc1CC[C@]1(O)CCC2=Cc3c(cnn3-c3ccc(F)cc3)C[C@@]21C [Example 58 WO 2004/075840 A2, reference compound] | – | 0.28 |
| COC(=O)C1(NC(=O)c2ccccc2CC[C@]2(O)CCC3=Cc4c(cnn4-c4ccc(F)cc4)C[C@@]32C)CC1 [Example 26, methyl 1-[(2-{2-[(4αS,5R)-1-(4-fluorophenyl)-5-hydroxy-4α-methyl-1,4,4α,5,6,7-hexahydrocyclopenta[f]indazol-5-yl]ethyl}benzoyl)amino]cyclopropanecarboxylate] | 1.37 | – |
| C[C@]12Cc3cnn(-c4ccc(F)cc4)c3C=C1CC[C@@]2(O)CCc1cccc(F)c1[C@H](N)C(F)(F)F [Example 151, (4αS,5R)-5-(2-{2-[(1S)-1-amino-2,2,2-trifluoroethyl]-3-fluorophenyl}ethyl)-1-(4-fluorophenyl)-4α-methyl-1,4,4α,5,6,7-hexahydrocyclopenta[f]indazol-5-ol] | 1.74 | – |
| CC(C)(C)CNC(=O)c1c(F)cccc1CC[C@]1(O)CCC2=Cc3c(cnn3-c3ccc(F)cc3)C[C@@]21C [Example 55, N-(2,2-dimethylpropyl)-2-fluoro-6-{2-[(4αS,5R)-1-(4-fluorophenyl)-5-hydroxy-4α-methyl-1,4,4α,5,6,7-hexahydrocyclopenta[f]indazol-5-yl]ethyl}benzamide] | 0.92 | – |
| C[C@]12Cc3cnn(-c4ccccc4)c3C=C1CC[C@@]2(O)CCc1ccccc1C(N)=O [Example 43, 2-{2-[(4αS,5R)-5-hydroxy-4α-methyl-1-phenyl-1,4,4α,5,6,7-hexahydrocyclopenta[f]indazol-5-yl]ethyl}benzamide] | 5.16 | – |
| C[C@]12Cc3cnn(-c4ccc(F)cc4)c3C=C1CC[C@@]2(O)CCc1ccccc1C(=O)N1CCCCC1 [Example 46, (4αS,5R)-1-(4-fluorophenyl)-4α-methyl-5-{2-[2-(piperidin-1-ylcarbonyl)phenyl]ethyl}-1,4,4α,5,6,7-hexahydrocyclopenta[f]indazol-5-ol] | 3.02 | – |
| C[C@]12Cc3cnn(-c4ccc(F)cc4)c3C=C1CC[C@@]2(O)/C=C/c1ccccc1S(N)(=O)=O [Example 160, 2-{(E)-2-[(4αS,5R)-1-(4-fluorophenyl)-5-hydroxy-4α-methyl-1,4,4α,5,6,7-hexahydrocyclopenta[f]indazol-5-yl]vinyl}benzenesulfonamide] | 0.94 | – |
| C[C@]12Cc3cnn(-c4ccc(Cl)cc4)c3C=C1CC[C@@]2(O)CCc1cccc(F)c1C(N)=O [Example 185, 2-{2-[(4αS,5R)-1-(4-chlorophenyl)-5-hydroxy-4α-methyl-1,4,4α,5,6,7-hexahydrocyclopenta[f]indazol-5-yl]ethyl}-6-fluorobenzamide] | 1.93 | – |
| C[C@]12Cc3cnn(-c4ccc(F)cc4)c3C=C1CC[C@@]2(O)CCc1ccc(F)cc1C(N)=O [Example 159, 5-fluoro-2-{2-[(4αS,5R)-1-(4-fluorophenyl)-5-hydroxy-4α-methyl-1,4,4α,5,6,7-hexahydrocyclopenta[f]indazol-5-yl]ethyl}benzamide] | 2.96 | – |
| CN(C)S(=O)(=O)Nc1c(F)cccc1CC[C@]1(O)CCC2=Cc3c(cnn3-c3ccc(F)cc3)C[C@@]21C [Example 113, N′-(2-fluoro-6-{2-[(4αS,5R)-1-(4-fluorophenyl)-5-hydroxy-4α-methyl-1,4,4α,5,6,7-hexahydrocyclopenta[f]indazol-5-yl]ethyl}phenyl)-N,N-dimethylsulfamide] | 2.66 | – |

More lines, in order of falling Ki [1], values ahead:

| Ki [1] [nM] | Ki [2] [nM] | Compound |
| --- | --- | --- |
| 0.9 | – | CC(CNC(=O)c1ccccc1CC[C@]1(O)CCC2=Cc3c(cnn3-c3ccc(F)cc3)C[C@@]21C)C(F)(F)F (stereo partly drawn) [Example 31, 2-{2-[(4αS,5R)-1-(4-fluorophenyl)-5-hydroxy-4α-methyl-1,4,4α,5,6,7-hexahydrocyclopenta[f]indazol-5-yl]ethyl}-N-(3,3,3-trifluoro-2-methylpropyl)benzamide] |
| 0.84 | – | CN(C)S(=O)(=O)c1ccccc1CC[C@]1(O)CCC2=Cc3c(cnn3-c3ccc(F)cc3)C[C@@]21C [Example 138, 2-{2-[(4αS,5R)-1-(4-fluorophenyl)-5-hydroxy-4α-methyl-1,4,4α,5,6,7-hexahydrocyclopenta[f]indazol-5-yl]ethyl}-N,N-dimethylbenzenesulfonamide] |
| 0.49 | – | C=C(C)CNC(=O)c1ccccc1CC[C@]1(O)CCC2=Cc3c(cnn3-c3ccc(F)cc3)C[C@@]21C [Example 32, 2-{2-[(4αS,5R)-1-(4-fluorophenyl)-5-hydroxy-4α-methyl-1,4,4α,5,6,7-hexahydrocyclopenta[f]indazol-5-yl]ethyl}-N-(2-methylprop-2-en-1-yl)benzamide] |
| 0.43 | – | CC(CNC(=O)c1c(F)cccc1CC[C@]1(O)CCC2=Cc3c(cnn3-c3ccc(F)cc3)C[C@@]21C)C(F)(F)F (stereo partly drawn) [Example 38, 2-fluoro-6-{2-[(4αS,5R)-1-(4-fluorophenyl)-5-hydroxy-4α-methyl-1,4,4α,5,6,7-hexahydrocyclopenta[f]indazol-5-yl]ethyl}-N-(3,3,3-trifluoro-2-methylpropyl)benzamide] |
| 0.31 | – | C[C@]12Cc3cnn(-c4ccc(F)cc4)c3C=C1CC[C@@]2(O)CCc1cccc(F)c1CNS(=O)(=O)C(Cl)Cl [Example 85, 1,1-dichloro-N-(2-fluoro-6-{2-[(4αS,5R)-1-(4-fluorophenyl)-5-hydroxy-4α-methyl-1,4,4α,5,6,7-hexahydrocyclopenta[f]indazol-5-yl]ethyl}benzyl)methanesulfonamide] |
| 0.17 | – | C[C@]12Cc3cnn(-c4ccc(F)cc4)c3C=C1CC[C@@]2(O)CCc1ccc(F)cc1C#N [Example 163, 5-fluoro-2-{2-[(4αS,5R)-1-(4-fluorophenyl)-5-hydroxy-4α-methyl-1,4,4α,5,6,7-hexahydrocyclopenta[f]indazol-5-yl]ethyl}benzonitrile] |
